± gives the standard deviation of the averaged measurements.
Experiments:
Experiment in all cases: level (log10 ratio to DMSO vehicle control); higher = higher biomarker level / cell amount than vehicle control
Settings in all cases: in DMSO
[1] = compound: COC(=O)CCC(F)(F)C(F)(F)C(F)(F)C(F)(F)F [Methyl 2H,2H,3H,3H-perfluoroheptanoate]
Method: (§1)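 BioMAP Diversity Plus panel of 12 human primary cell co-culture systems (3C, 4H, LPS, SAg, BT, BF4T, BE3C, CASM3C, HDF3CGF, KF3CT, MyoF, Mphg). Compounds were added 1 h before stimulation and left for 24 h (MyoF 48 h; BT 72 h for soluble read-outs or 6 d for IgG). Biomarkers were read by ELISA, cytotoxicity by SRB, PBMC viability and proliferation by Alamar Blue. Each well value was divided by the mean of 8 DMSO control wells on the same plate and log10 transformed; duplicate blinded samples were tested at 4 concentrations.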

[2] = compound: O=C(O)C(F)(F)OC(F)(F)C(F)(F)OC(F)(F)C(=O)O [Perfluoro-3,6-dioxaoctane-1,8-dioic acid]
Method: as §1

[3] = compound: C=CC(F)(F)C(F)(F)C(F)(F)C(F)(F)C(F)(F)C(F)(F)C(F)(F)C(F)(F)C=C [1,8-Divinylperfluorooctane]
Method: as §1

Perfluoropropanoic acid = compound: O=C(O)C(F)(F)C(F)(F)F [Perfluoropropanoic acid]
Method: as §1

[4] = compound: FC(F)C(F)(F)COCC1CO1 [((2,2,3,3-Tetrafluoropropoxy)methyl)oxirane]
Method: as §1

[5] = compound: OCC(F)(F)OC(F)(F)C(F)(F)OC(F)(F)CO [1H,1H,8H,8H-Perfluoro-3,6-dioxaoctane-1,8-diol]
Method: as §1

| Test System | level (log10) ([1]; 6700 nM) | level (log10) ([1]; 20000 nM) | level (log10) ([1]; 60000 nM) | level (log10) ([2]; 6700 nM) | level (log10) ([2]; 20000 nM) | level (log10) ([2]; 60000 nM) | level (log10) ([3]; 6700 nM) | level (log10) ([3]; 20000 nM) | level (log10) (Perfluoropropanoic acid; 6700 nM) | level (log10) (Perfluoropropanoic acid; 20000 nM) | level (log10) (Perfluoropropanoic acid; 60000 nM) | level (log10) ([4]; 6700 nM) | level (log10) ([4]; 20000 nM) | level (log10) ([4]; 60000 nM) | level (log10) ([5]; 6700 nM) | level (log10) ([5]; 20000 nM) | level (log10) ([5]; 60000 nM) |
| --- | --- | --- | --- | --- | --- | --- | --- | --- | --- | --- | --- | --- | --- | --- | --- | --- | --- |
| KF3CT:CD54/ICAM-1 | 0.005 ± 0.0028 | 0.021 ± 0.024 | -0.01 ± 0.04 | 0 ± 0.0057 | 0.01 | 0.0065 ± 0.015 | -0.0145 ± 0.00071 | -0.002 | -0.0135 ± 0.0092 | -0.0015 ± 0.0021 | 0.004 ± 0.0028 | -0.0065 ± 0.015 | -0.012 ± 0.0085 | -0.014 ± 0.016 | -0.004 ± 0.0014 | 0.008 ± 0.03 | 0.0135 ± 0.037 |
| KF3CT:CXCL8/IL-8 | -0.0125 ± 0.019 | -0.007 ± 0.013 | 0.0175 ± 0.044 | -0.0015 ± 0.0078 | 0.0025 ± 0.033 | 0.026 ± 0.025 | -0.0035 ± 0.033 | 0.011 ± 0.0057 | -0.0125 ± 0.011 | 0.0095 ± 0.0092 | 0.0475 ± 0.03 | -0.024 ± 0.02 | -0.0035 ± 0.0092 | -0.001 ± 0.0071 | 0.011 ± 0.021 | 0.0125 ± 0.028 | 0.016 ± 0.018 |
| KF3CT:CXCL9/MIG | -0.003 ± 0.0057 | 0.004 ± 0.0042 | -0.02 ± 0.0028 | -0.0035 ± 0.0092 | 0.0065 ± 0.0078 | 0.017 ± 0.0099 | -0.002 ± 0.0042 | -0.0015 ± 0.011 | -0.007 ± 0.0071 | -0.005 ± 0.017 | -0.0095 ± 0.021 | 0.007 ± 0.0085 | -0.002 ± 0.0099 | 0.0055 ± 0.0078 | 0.001 ± 0.011 | 0.006 ± 0.0085 | 0.0015 ± 0.0092 |
| KF3CT:CXCL10/IP-10 | 0.005 ± 0.02 | -0.003 ± 0.0014 | -0.005 ± 0.0014 | 0.0045 ± 0.011 | 0.0095 ± 0.022 | 0.029 ± 0.0085 | -0.001 ± 0.018 | -0.0135 ± 0.005 | -0.022 ± 0.033 | 0.004 ± 0.014 | 0.019 ± 0.0085 | -0.002 ± 0.0028 | -0.0005 ± 0.0035 | -0.0015 ± 0.022 | 0.0025 ± 0.005 | -0.001 ± 0.0028 | 0.004 ± 0.0028 |
| KF3CT:IL-1alpha | -0.0295 ± 0.019 | -0.019 ± 0.018 | -0.0095 ± 0.029 | 0.0075 ± 0.00071 | -0.0065 ± 0.013 | 0.02 ± 0.013 | -0.0455 ± 0.013 | -0.0075 ± 0.057 | -0.013 ± 0.05 | -0.0035 ± 0.052 | -0.04 ± 0.038 | 0.006 ± 0.011 | -0.0085 ± 0.013 | 0.0055 ± 0.039 | -0.029 ± 0.045 | -0.013 ± 0.014 | 0.013 ± 0.023 |
| KF3CT:MMP-9 | -0.012 ± 0.047 | -0.0145 ± 0.035 | -0.024 ± 0.017 | -0.0105 ± 0.012 | 0 ± 0.0042 | 0.007 ± 0.0085 | -0.0395 ± 0.028 | -0.029 ± 0.018 | -0.0405 ± 0.012 | -0.053 ± 0.035 | -0.0105 ± 0.032 | 0.0085 ± 0.0064 | -0.005 ± 0.011 | 0.012 ± 0.011 | -0.0005 ± 0.00071 | 0.0085 ± 0.011 | 0.0265 ± 0.0078 |
| KF3CT:PAI-I | -0.01 ± 0.013 | -0.009 ± 0.0042 | -0.0105 ± 0.0092 | -0.0145 ± 0.025 | -0.0125 ± 0.00071 | 0.003 ± 0.018 | 0.0215 ± 0.00071 | 0.018 ± 0.013 | 0.0095 ± 0.07 | 0.021 ± 0.0071 | -0.006 ± 0.1 | 0.004 | -0.0085 ± 0.005 | -0.0015 ± 0.012 | -0.015 ± 0.0028 | -0.0095 ± 0.0078 | -0.002 ± 0.0099 |
| KF3CT:SRB | -0.018 ± 0.016 | -0.0055 ± 0.005 | 0 ± 0.018 | -0.0185 ± 0.011 | -0.0185 ± 0.0092 | 0.0015 ± 0.012 | -0.011 ± 0.018 | -0.0235 ± 0.005 | 0.005 ± 0.0071 | -0.005 ± 0.0028 | -0.003 | -0.0085 ± 0.0035 | -0.0055 ± 0.0092 | 0.012 ± 0.034 | -0.002 ± 0.0057 | -0.0025 ± 0.0021 | 0.0075 ± 0.023 |

Source: the supplement of paper PMC10331698
